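Protocol summary: plate cells (96-well), add compound at 5 concentrations, incubate 48 h, interpolate endpoints linearly. TGI is the concentration that stops growth completely.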

Test systems include HCC-2998 colon; TK-10 renal; SNB-19 CNS; HT29 colon; SK-MEL-2 melanoma; SF-295 CNS; M14 melanoma; SK-MEL-5 melanoma; OVCAR-5 ovarian; CCRF-CEM leukemia; NCI/ADR-RES ovarian; SN12C renal; NCI-H23 lung; OVCAR-8 ovarian; A549 NSCLC; NCI-H226 lung.
What all share (assay): DTP human tumour cell line panel, 48 h

In the case of `COc1cc(OC)nc(-n2c(N)c(C#N)c3ccc([N+](=O)[O-])cc3c2=O)n1`, the concentration for total growth inhibition (TGI) in the assay on HCC-2998 colon, in the assay on TK-10 renal, in the assay on SNB-19 CNS, in the assay on HT29 colon, in the assay with SK-MEL-2 melanoma and in the assay on SF-295 CNS was over 100 µM throughout. Also, the TGI in the assay on M14 melanoma, in the assay on SK-MEL-5 melanoma, with OVCAR-5 ovarian, in the assay on CCRF-CEM leukemia, with NCI/ADR-RES ovarian and with SN12C renal was over 100 µM each time. Also, the total growth inhibition concentration (TGI) in the assay with NCI-H23 lung, in the assay with OVCAR-8 ovarian and in the assay on A549 NSCLC was over 100 µM each time.
Consider `Cc1ccc(N(C(=O)Nc2ccccc2)C2=NCC(C)S2)cc1C` (centres undefined), for which the total growth inhibition concentration (TGI) was over 10 µM in the assay on HCC-2998 colon; 55.2 µM with TK-10 renal; over 100 µM with SNB-19 CNS; 41.9 µM in the assay with HT29 colon; 32.2 µM with SK-MEL-2 melanoma; 85.3 µM in the assay with SF-295 CNS. In addition, the TGI worked out at 28.4 µM with M14 melanoma; 30.7 µM in the assay on SK-MEL-5 melanoma; 73.5 µM in the assay on OVCAR-5 ovarian; 50.6 µM in the assay with CCRF-CEM leukemia; 52.4 µM in the assay with NCI/ADR-RES ovarian; 32 µM in the assay on SN12C renal. The TGI with NCI-H23 lung is 42.5 µM; in the assay on OVCAR-8 ovarian, 91.2 µM; in the assay with A549 NSCLC, over 100 µM.
As for `COC(=O)C(C#CCCCCC#CC(NC(=O)OCc1ccccc1)(C(=O)OC)C(F)(F)F)(NC(=O)OCc1ccccc1)C(F)(F)F` (centres undefined), the concentration for total growth inhibition (TGI) in the assay on HCC-2998 colon, in the assay with TK-10 renal, in the assay with NCI-H226 lung, in the assay with SNB-19 CNS, with HT29 colon and with SF-295 CNS was over 100 µM throughout. Moreover, the TGI in the assay on M14 melanoma, with SK-MEL-5 melanoma, with OVCAR-5 ovarian, in the assay on CCRF-CEM leukemia, in the assay on SN12C renal and in the assay with NCI-H23 lung was over 100 µM each time. For the same compound, the TGI in the assay on OVCAR-8 ovarian and in the assay on A549 NSCLC was over 100 µM in each case.
For the compound `Cc1ccc(N2C(=O)CS/C2=C(\C#N)c2nc3ccccc3[nH]2)cc1`, the total growth inhibition concentration (TGI) with HCC-2998 colon, in the assay on TK-10 renal, in the assay on NCI-H226 lung, in the assay with SNB-19 CNS, in the assay with SK-MEL-2 melanoma and with M14 melanoma was over 100 µM throughout. Besides, the TGI with SK-MEL-5 melanoma, in the assay with OVCAR-5 ovarian, with CCRF-CEM leukemia, with SN12C renal, with NCI-H23 lung and in the assay on OVCAR-8 ovarian was over 100 µM in each case. The total growth inhibition concentration (TGI) with A549 NSCLC was over 100 µM.
Take `Cc1ccc([N+](=O)[O-])cc1NC(=O)/C(=N/NC(=S)NN)C1SC(=S)NC1=O` (centres undefined): the TGI in the assay on TK-10 renal, in the assay with NCI-H226 lung, in the assay with SNB-19 CNS, with HT29 colon, in the assay on SK-MEL-2 melanoma and in the assay with SF-295 CNS was over 100 µM each time. Moreover, the TGI in the assay on M14 melanoma, with SK-MEL-5 melanoma, in the assay with OVCAR-5 ovarian, with CCRF-CEM leukemia, in the assay on SN12C renal and in the assay with NCI-H23 lung was over 100 µM in each case. Further, the TGI in the assay with OVCAR-8 ovarian and in the assay with A549 NSCLC was over 100 µM each time.
As for `N#C/C(c1nc2ccccc2[nH]1)=c1\s/c(=C/c2ccc(Cl)cc2)c(=O)n1-c1ccccc1`, the TGI in the assay with HCC-2998 colon, in the assay on TK-10 renal, in the assay with NCI-H226 lung, with SNB-19 CNS, with SK-MEL-2 melanoma and with M14 melanoma was over 100 µM throughout. Further, the TGI with SK-MEL-5 melanoma, with OVCAR-5 ovarian, with CCRF-CEM leukemia, with SN12C renal, in the assay on NCI-H23 lung and in the assay on OVCAR-8 ovarian was over 100 µM each time. Moreover, the total growth inhibition concentration (TGI) in the assay with A549 NSCLC was over 100 µM.
For the compound `CCC12CCCN(Cc3ccccc3)C1c1c(n(C)c3ccccc13)C(C(=O)OC)C2` (centres undefined), the concentration for total growth inhibition (TGI) with HCC-2998 colon, in the assay with TK-10 renal, in the assay on NCI-H226 lung, in the assay with SNB-19 CNS, in the assay on HT29 colon and with SK-MEL-2 melanoma was over 239 µM throughout. Also, the concentration for total growth inhibition (TGI) in the assay on SF-295 CNS was 231 µM; in the assay with SK-MEL-5 melanoma, 97.1 µM; in the assay with OVCAR-5 ovarian it was over 239 µM; in the assay with CCRF-CEM leukemia, over 239 µM; with SN12C renal, over 239 µM; with NCI-H23 lung, over 239 µM. Also, the concentration for total growth inhibition (TGI) in the assay with OVCAR-8 ovarian and in the assay on A549 NSCLC was over 239 µM in each case.
As to `Nc1nc(SCc2ccc([N+](=O)[O-])cc2)nc2c1ncn2C1OC(CO)C(O)C1O` (centres undefined), the TGI in the assay with HCC-2998 colon, in the assay with TK-10 renal, with NCI-H226 lung, in the assay with SNB-19 CNS, in the assay on HT29 colon and with SF-295 CNS was over 100 µM in each case. The TGI in the assay with SK-MEL-5 melanoma, with OVCAR-5 ovarian, with CCRF-CEM leukemia, in the assay with SN12C renal, in the assay on NCI-H23 lung and in the assay on OVCAR-8 ovarian was over 100 µM in each case. The total growth inhibition concentration (TGI) in the assay on A549 NSCLC is over 100 µM.
For the compound `CN1c2ccccc2N(C(=O)c2ccc(Cl)cc2)C(CC(=O)O)c2cccn21` (centres undefined), the TGI in the assay on HCC-2998 colon, with TK-10 renal, in the assay with NCI-H226 lung, in the assay with SNB-19 CNS, in the assay on HT29 colon and with SK-MEL-2 melanoma was over 100 µM throughout. For the same compound, the total growth inhibition concentration (TGI) in the assay with SF-295 CNS, with M14 melanoma, in the assay with SK-MEL-5 melanoma, with OVCAR-5 ovarian, in the assay on CCRF-CEM leukemia and in the assay on SN12C renal was over 100 µM throughout. The TGI in the assay on NCI-H23 lung, in the assay on OVCAR-8 ovarian and in the assay with A549 NSCLC was over 100 µM in each case.
Take `CCOC(=O)/C=C/n1c2ccccc2c(=O)c2ccccc21`: the TGI with HCC-2998 colon, in the assay with TK-10 renal, in the assay with NCI-H226 lung, with SNB-19 CNS, with HT29 colon and with SK-MEL-2 melanoma was over 100 µM in each case. Further, the TGI in the assay on SF-295 CNS, with M14 melanoma, in the assay with CCRF-CEM leukemia, in the assay on SN12C renal, with NCI-H23 lung and in the assay with OVCAR-8 ovarian was over 100 µM throughout. The concentration for total growth inhibition (TGI) in the assay with A549 NSCLC was over 100 µM.

As usually defined, the TGI is the concentration giving total growth inhibition. High values mean lower sensitivity of the cells, low ones greater sensitivity of the cells.

The values above are taken from PubChem BioAssay (NCI).
